# From patent publication US12005123B2, “Conjugate of isotretinoin and peptide” (CAREGEN CO., LTD., priority 2017, dated 2024)
# Like-named read-outs stand apart in the source and are kept apart here.
# Legend:
# [1] = cited from earlier work
# [2] = background statement; cited from earlier work
# [3] = Solubility test in distilled water; format: physicochemical; settings: 10 mg/ml, FIG. 1
Structure (SMILES),fasting bioavailability ([1]; fasting),time to reach the highest blood concentration ([1]; oral administration),solubility in water [2],solubility in water [3],blood concentration of active metabolite versus isotretinoin ([1]; 6 hours after administration)
"CC1=C(/C=C/C(C)=C/C=C/C(C)=C\C(=O)O)C(C)(C)CCC1 [isotretinoin, 13-cis-retinoic acid]",about 20%,2 to 4 h,low,hardly dissolved in water,
CC1=C(/C=C/C(C)=C/C=C/C(C)=C/C(=O)O)C(C)(C)CCC1=O [4-oxo-isotretinoin],,,,,higher than the blood concentration of isotretinoin
